In general, IC50 refers to the concentration that gives 50% inhibition.

Structures can show the parent of a compound that is named as a salt. Where two headings read alike, the source gives them in different places. Some results are limits rather than exact numbers.

This is an account of results in US20150368242A1, “NOVEL TETRAHYDROPYRIDOPYRIMIDINONE DERIVATIVE” (Ajinomoto Co., Inc., priority 2013, published 2015).

This assay addresses T1, recombinant human MGAT2 enzyme (Homo sapiens, UniProt Q3SYC2).
T1 construct: made in house; host or cells: CHO-K1 (Jump-In CHO-K1 Kit, Life Technologies); microsomal fraction used as the enzyme solution
Put plainly: Test for human MGAT2 activity inhibitory action (14C-oleoyl CoA, recombinant enzyme microsomes). The format is biochemical. The note with it: for IC50: read-out: IC50. Set-up: key to Potency relative to Comparative Example 1 (higher = more potent): % inhibition = {1−(C−B)/(A−B)}×100, B = 10 μM Comparative Example 1. Here is the method: The human MGAT2 gene described in Am. J. Physiol. Endocrinol. Metab. 285: E927-E937, 2003 was expressed using Jump-In™ CHO-K1 Kit (Life technologies) as described in the attached manual. The cells were suspended in a buffer containing Tris-hydrochloric acid (pH 7.4) at a final concentration of 1 mM, 1 mM ethylenediaminetetraacetic acid, 1 mM dithiothreitol, 250 mM sucrose, and complete protease inhibitor cocktail (Roche applied Science), and then disrupted using a Teflon homogenizer (AS ONE Corporation), followed by centrifugation at 130 g for 10 minutes. The supernatant was further centrifuged at 100,000 g for 1 hour to obtain a pellet as microsomes containing the recombinant enzyme, and a solution obtained by suspending this pellet at a protein concentration of about 800 to 1900 μg/ml was used as an MGAT recombinant enzyme solution.
To a buffer containing 50 mM Tris-hydrochloric acid (pH 7.4), 6 mM magnesium chloride, and 2 mg/mL bovine serum albumin, a test compound was added, and the final concentration of dimethyl sulfoxide was adjusted to 0.3%. Moreover, 2-monooleoyl glycerol, oleoyl CoA, 1-^14C-oleoyl CoA (Perkin Elmer), and orlistat (SIGMA) were added at final concentrations of 50 μM, 50 μM, 2.2 μM, and 8.3 μM, respectively, followed by incubation at 37° C. for 10 minutes. After 10 minutes, the recombinant human MGAT2 enzyme solution was added at a final concentration of 0.67 μg/mL, and the reaction was started, with the amount of the reaction solution being 150 μl. The reaction was carried out at 37° C. for 30 minutes.
After 30 minutes, the reaction was stopped by adding 300 μl of isopropanol:heptane:water=(80:20:2) to the reaction liquid. Further, 200 μl of heptane and 100 μl of water were added, followed by stirring. Then, 100 μl of the upper layer was transferred to a 96-well plate (Corning), and mixed with 100 μl of liquid scintillator (LumaSafe Plus, Lumac). Then, the ^14C count was quantitatively determined using TopCount NXT™ microplate scintillation luminescence counter (Perkin Elmer).
The ^14C count in a case where no test compound was added was defined as A, the ^14C count in a case where 10 μM of the compound (Comparative Example 1) of Example No. 8 of WO2008/038768 was added was defined as B, and the ^14C count in the case where the test compound was added was taken as C. For this case, {1−(C−B)/(A−B)}×100(%) was calculated as the human MGAT2 activity inhibition ratio of the test compound (shown in the column named vs Comp. Ex. 1 in the following Table). A greater value of the “vs Comparative Example 1” means that the MGAT2 activity inhibitory action of the compound of Example was higher as compared to the MGAT2 activity inhibitory action of the compound of Comparative Example 1 (i.e., the human MGAT2 activity inhibition ratio was higher). […] Since this evaluation test was conducted for two separate groups, the test results of the two groups are shown separately in Table (First Test) and Table 4 (Second Test).
Next, the compounds of Examples 25 to 60 of the present invention were also investigated for their pharmacological action by using the same method as in Examples 1 to 24. […] Note that, a comparative evaluation test against the compound of Comparative Example 1 was conducted for each of the compounds of Examples (in every measurement of the inhibitory activity of the compounds of Examples 25 to 60, the inhibitory activity of the compound of Comparative Example 1 was measured). The 50% inhibition concentrations of Comparative Example 1 in the measurement of the inhibitory activities of the compounds of Examples 25 to 60 were shown in Table 5 as “IC50 (nM) of Comparative Example 1.”

Setting [1] is: Second Test (Table 4), relative to Comparative Example 1.
[2] abbreviates: Table 5, Examples 25 to 60, same method.
Where [3] appears, read: Table 5, relative to Comparative Example 1 measured in the same run.

T1 sequence (Q3SYC2 whole entry): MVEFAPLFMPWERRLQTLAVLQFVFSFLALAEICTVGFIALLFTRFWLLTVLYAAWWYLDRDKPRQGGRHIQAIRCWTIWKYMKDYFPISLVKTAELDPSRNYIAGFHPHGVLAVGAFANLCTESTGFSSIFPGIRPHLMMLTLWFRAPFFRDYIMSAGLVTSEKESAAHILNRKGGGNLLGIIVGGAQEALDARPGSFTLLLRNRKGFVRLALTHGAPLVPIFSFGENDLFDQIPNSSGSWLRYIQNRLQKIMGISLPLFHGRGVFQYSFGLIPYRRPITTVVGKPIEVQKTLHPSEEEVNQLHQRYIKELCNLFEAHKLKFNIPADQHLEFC

Take `O=C(CCNCc1csc2ccccc12)N1CCc2nc(SC3CCC3)n(-c3ccccc3)c(=O)c2C1` [Example 20, 6-[3-(benzothiophen-3-ylmethylamino)propanoyl]-2-cyclobutylsulfanyl-3-phenyl-7,8-dihydro-5H-pyrido[4,3-d]pyrimidin-4-one trifluoroacetate]: the IC50 (Second Test (Table 4)) stood at 1 nM. For the same molecule, the “Potency relative to Comparative Example 1 (higher = more potent)” value under setting [1] was 300.

For the molecule `COc1ccccc1CNCCC(=O)N1CCc2nc(SC3CCC3)n(-c3ccccc3)c(=O)c2C1` [Example 17, 2-cyclobutylsulfanyl-6-[3-[(2-methoxyphenyl)methylamino]propanoyl]-3-phenyl-7,8-dihydro-5H-pyrido[4,3-d]pyrimidin-4-one trifluoroacetate], the IC50 (Second Test (Table 4)) was 2.1 nM. The “Potency relative to Comparative Example 1 (higher = more potent)” value under setting [1] is 148.

Regarding `O=C(CNCCCCCOc1ccc(F)cc1)N1CCc2nc(SC3CCC3)n(-c3ccccc3)c(=O)c2C1` [Example 53, 2-cyclobutylsulfanyl-6-[2-[5-(4-fluorophenoxy)pentylamino]acetyl]-3-phenyl-7,8-dihydro-5H-pyrido[4,3-d]pyrimidin-4-one trifluoroacetate], the half-maximal inhibitory concentration (IC50) under setting [2] came out at 2 nM. Also, the “Potency relative to Comparative Example 1 (higher = more potent)” value under setting [3] is 133.

Consider `O=C(CCNCc1ccc2c(c1)CCO2)N1CCc2nc(SC3CCC3)n(-c3ccccc3)c(=O)c2C1` [Example 32, 2-cyclobutylsulfanyl-6-[3-(2,6-dihydrobenzofuran-5-ylmethylamino)propanoyl]-3-phenyl-7,8-dihydro-5H-pyrido[4,3-d]pyrimidin-4-one trifluoroacetate], for which the IC50 under setting [2] stood at 1.3 nM. Also, the “Potency relative to Comparative Example 1 (higher = more potent)” value under setting [3] was 166.

Consider `[2H]c1c([2H])c([2H])c(-n2c(SC3CCC3)nc3c(c2=O)CN(C(=O)CCNCc2ccccc2)CC3)c([2H])c1[2H]` [Example 11, 6-[3-(benzylamino)propanoyl]-2-cyclobutylsulfanyl-3-(2,3,4,5,6-pentadeuteriophenyl)-7,8-dihydro-5H-pyrido[4,3-d]pyrimidin-4-one trifluoroacetate], for which the IC50 (Second Test (Table 4)) is 1.8 nM. Also, the “Potency relative to Comparative Example 1 (higher = more potent)” value under setting [1] amounted to 166.

As for `O=C(CCNCCCOc1ccc(F)cc1)N1CCc2nc(SC3CCC3)n(-c3ccccc3)c(=O)c2C1` [Example 47, 2-cyclobutylsulfanyl-6-[3-[3-(4-fluorophenoxy)propylamino]propanoyl]-3-phenyl-7,8-dihydro-5H-pyrido[4,3-d]pyrimidin-4-one trifluoroacetate], the IC50 under setting [2] was 1.1 nM.

For `O=C(CNCCOc1ccc(F)c(F)c1)N1CCc2nc(SC3CCC3)n(-c3ccccc3)c(=O)c2C1` [Example 9, 2-cyclobutylsulfanyl-6-[2-[2-(3,4-difluorophenoxy)ethylamino]acetyl]-3-phenyl-7,8-dihydro-5H-pyrido[4,3-d]pyrimidin-4-one trifluoroacetate], the IC50 (First Test (Table 3)) was 3.9 nM. For the same molecule, the “Potency relative to Comparative Example 1 (higher = more potent)” value (First Test (Table 3), relative to Comparative Example 1, greater value = higher inhibitory action) was 57.

As to `O=C(CCNCCCCCOc1ccc(F)cc1)N1CCc2nc(SC3CCC3)n(-c3ccccc3)c(=O)c2C1` [Example 49, 2-cyclobutylsulfanyl-6-[3-[5-(4-fluorophenoxy)pentylamino]propanoyl]-3-phenyl-7,8-dihydro-5H-pyrido[4,3-d]pyrimidin-4-one trifluoroacetate], the IC50 under setting [2] is less than 1 nM. Besides, under setting [3], the “Potency relative to Comparative Example 1 (higher = more potent)” value was greater than 184.

With `O=C(CNCCCCOc1ccc(F)cc1)N1CCc2nc(SC3CCC3)n(-c3ccccc3)c(=O)c2C1` [Example 52, 2-cyclobutylsulfanyl-6-[2-[4-(4-fluorophenoxy)butylamino]acetyl]-3-phenyl-7,8-dihydro-5H-pyrido[4,3-d]pyrimidin-4-one trifluoroacetate], the IC50 under setting [2] came out at 1.7 nM. Moreover, the “Potency relative to Comparative Example 1 (higher = more potent)” value under setting [3] is given as 158.

With `O=C(CCNCCCCOc1ccc(F)cc1)N1CCc2nc(SC3CCC3)n(-c3ccccc3)c(=O)c2C1` [Example 48, 2-cyclobutylsulfanyl-6-[3-[4-(4-fluorophenoxy)butylamino]propanoyl]-3-phenyl-7,8-dihydro-5H-pyrido[4,3-d]pyrimidin-4-one trifluoroacetate], the IC50 under setting [2] is less than 1 nM. Also, the “Potency relative to Comparative Example 1 (higher = more potent)” value under setting [3] is greater than 184.

Consider `O=C(CCNCc1ccccc1)N1CCc2nc(SC3CCC3)n(C3CCCC3)c(=O)c2C1` [Example 15, 6-[3-(benzylamino)propanoyl]-2-cyclobutylsulfanyl-3-cyclopentyl-7,8-dihydro-5H-pyrido[4,3-d]pyrimidin-4-one trifluoroacetate], for which, under “Second Test (Table 4)”, the concentration for half-maximal inhibition (IC50) turned out to be 2.4 nM. In addition, the “Potency relative to Comparative Example 1 (higher = more potent)” value under setting [1] amounted to 129.

Turning to `O=C(CCNCc1ccccc1)N1CCc2nc(SC3CCC3)n(C[C@H]3CCCO3)c(=O)c2C1` [Example 13, 6-[3-(benzylamino)propanoyl]-2-cyclobutylsulfanyl-3-[[(2R)-tetrahydrofuran-2-yl]methyl]-7,8-dihydro-5H-pyrido[4,3-d]pyrimidin-4-one trifluoroacetate], under “Second Test (Table 4)”, the IC50 was found to be 6.9 nM. Further, under setting [1], the “Potency relative to Comparative Example 1 (higher = more potent)” value amounted to 44.

Regarding `O=C(CNCCCCCOC1CCCCC1)N1CCc2nc(SC3CCC3)n(-c3ccccc3)c(=O)c2C1` [Example 57, 2-cyclobutylsulfanyl-6-[2-[5-(cyclohexoxy)pentylamino]acetyl]-3-phenyl-7,8-dihydro-5H-pyrido[4,3-d]pyrimidin-4-one trifluoroacetate], the concentration for half-maximal inhibition (IC50) under setting [2] came to 2.6 nM. Under setting [3], the “Potency relative to Comparative Example 1 (higher = more potent)” value is recorded as 81.

For the molecule `C[C@H](CNCCC(=O)N1CCc2nc(SC3CCC3)n(-c3ccccc3)c(=O)c2C1)c1ccccc1` [Example 37, 2-cyclobutylsulfanyl-3-phenyl-6-[3-[[(2S)-2-phenylpropyl]amino]propanoyl]-7,8-dihydro-5H-pyrido[4,3-d]pyrimidin-4-one trifluoroacetate], under setting [2], the IC50 came to 0.5 nM. The “Potency relative to Comparative Example 1 (higher = more potent)” value under setting [3] amounted to 273.

With `O=C(CCNCc1nc(Cc2ccccc2)no1)N1CCc2nc(SC3CCC3)n(-c3ccccc3)c(=O)c2C1` [Example 34, 6-[3-[(3-benzyl-1,2,4-oxadiazol-5-yl)methylamino]propanoyl]-2-cyclobutylsulfanyl-3-phenyl-7,8-dihydro-5H-pyrido[4,3-d]pyrimidin-4-one trifluoroacetate], the IC50 under setting [2] came to 3.2 nM. Also, the “Potency relative to Comparative Example 1 (higher = more potent)” value under setting [3] amounted to 47.

With `O=C(CNCc1ccc(Oc2cccc(C(F)(F)F)c2)cc1)N1CCc2nc(SC3CCC3)n(-c3ccccc3)c(=O)c2C1` [Example 54, 2-cyclobutylsulfanyl-3-phenyl-6-[2-[[4-[3-(trifluoromethyl)phenoxy]phenyl]methylamino]acetyl]-7,8-dihydero-5H-pyrido[4,3-d]pyrimidin-4-one trifluoroacetate], the IC50 under setting [2] stood at 2.6 nM. Moreover, the “Potency relative to Comparative Example 1 (higher = more potent)” value under setting [3] is on record as 91.

On to `O=C(CNCCCCCOC1CCC(F)(F)CC1)N1CCc2nc(SC3CCC3)n(-c3ccccc3)c(=O)c2C1` [Example 58, 2-cyclobutylsulfanyl-6-[2-[5-(4,4-difluorocyclohexoxy)pentylamino]acetyl]-3-phenyl-7,8-dihydro-5H-pyrido[4,3-d]pyrimidin-4-one trifluoroacetate], for which the IC50 under setting [2] is 3.3 nM. In addition, under setting [3], the “Potency relative to Comparative Example 1 (higher = more potent)” value was 63.
